According to US5095139A (Ciba-Geigy Corporation, priority 1986, dated 1992):

Columns and labels:
[1] = solubility; assay type: physicochemical
[2] = system: Saccharomyces cerevisiae; conditions: cited from earlier work
[3] = system: Candida albicans; conditions: cited from earlier work
[4] = system: hyphal fungi; conditions: cited from earlier work
[5] = system: pronase from Streptomyces griseus; test: pronase treatment
Protocol: The enzymatic hydrolysis of rhizocticine B (L-Val-L-Arg-L-APPA) to rhizocticine A with removal of valine is effected with pronase from Streptomyces griseus, a peptidase of low specificity. The enzymatic degradation of L-Val-L-Arg-L-APPA is effected quantitatively within a few minutes (approximately 15 minutes), the antifungal activity being obtained. By removing the N-terminal amino acid valine, rhizocticine A is formed. The hydrolysis is confirmed by thin-layer chromatography and ion-exchanger/amino acid analysis.

[6] = system: fungi; test: antifungal activity of isolated tripeptides; assay type: cell-based; conditions: isolated by HPLC from rhizocticine B isolates
[7] = system: pronase; test: pronase from Streptomyces griseus; conditions: up to 12 hours
[8] = system: thermolysin; test: thermolysin (2 mg/ml) in 0.05N N-ethylmorpholinium acetate, 0.01 M CaCl2 ×6H2 O (pH 7.8); conditions: 41° C., up to 30 hours

| Molecule | Solubility ([1]; 35% ethanol) | Solubility ([1]; apolar solvents) | Solubility ([1]; ethanol and higher alcohols) | Solubility ([1]; water) | other results |
| --- | --- | --- | --- | --- | --- |
| N[C@@H](/C=C\CP(=O)(O)O)C(=O)O (stereo in doubt) [L-APPA, L-2-amino-5-phosphono-3-cis-pentenoic acid] | readily soluble | insoluble | moderately soluble | readily soluble |  |
| C[C@H](N)C(=O)N[C@@H](C[C@@H]1CCC(=O)[C@@H]2O[C@H]12)C(=O)O [Bacilysin, N-alanyl-3-(2,3-epoxycyclohexanon-4-yl)-alanine] |  |  |  |  | inhibition [2]: inhibits; inhibition [3]: inhibits; action [4]: virtually no action |
| N=C(N)NCCC[C@H](N)C(=O)N[C@@H](/C=C\CP(=O)(O)O)C(=O)O [rhizocticine A, L-Arg-L-APPA] | readily soluble | insoluble | moderately soluble | readily soluble | loss of activity of the dipeptide formed ([5]; after 12 hours of pronase treatment): no loss of activity; behaviour during the pronase treatment ([5]; native compound): remains inert |
| CC(C)[C@H](N)C(=O)N[C@@H](CCCNC(=N)N)C(=O)N[C@@H](/C=C\CP(=O)(O)O)C(=O)O [rhizocticine B, L-Val-L-Arg-L-APPA] | readily soluble | insoluble | moderately soluble | readily soluble | time for quantitative enzymatic degradation (removal of N-terminal valine) ([5]; pronase): approximately 15 minutes |
| CC[C@H](C)[C@H](N)C(=O)N[C@@H](CCCNC(=N)N)C(=O)N[C@@H](/C=C\CP(=O)(O)O)C(=O)O [rhizocticine C, L-Ile-L-Arg-L-APPA] |  |  |  |  | antifungal activity [6]: antifungal |
| CC(C)C[C@H](N)C(=O)N[C@@H](CCCNC(=N)N)C(=O)N[C@@H](/C=C\CP(=O)(O)O)C(=O)O [rhizocticine D, L-Leu-L-Arg-L-APPA] |  |  |  |  | antifungal activity [6]: antifungal |
| L-Arg-L-APPA |  |  |  |  | not cleaved [7]: remains inert during the pronase treatment; cleaved bond [8]: L-Arg-L-APPA |
| L-Val-L-Arg-L-APPA |  |  |  |  | cleaved bond [7]: L-Val-L-Arg, approximately 15 minutes |
